# Experimental data as given in patent publication US11666600B2, “Methods for culturing and/or differentiating hematopoietic stem cells into progenitors and uses thereof” (HEMA-QUEBEC, priority 2015, dated 2023).
# Test system: Human CB CD34+-enriched cells
# Test: Culture of CB CD34+-enriched hematopoietic stem cells in conditions favoring self-renewal
# Assay type: cell-based
# Conditions: for Percentage of phenotype CD34+ / Percentage of phenotype CD34+/CD38− / Percentage of phenotype CD34+/CD38−/CD45RA− / Percentage of phenotype CD34+/CD45RA− / Percentage of phenotype CD38− / Percentage of phenotype CD45RA−: 14 days
# Experimental: Human cord blood (CB) was collected after obtaining written informed consent from donors, following our institutional Research Ethics Committee guidelines. Mononuclear cells (MNCs) were first separated over a Ficoll-Hypaque™ density gradient (GE Healthcare), then cryopreserved at −180° C. in Cryostor CS10™ medium ([…] Technologies). Thawed MNCs from six to eight CB were pooled before CD34 isolation. CB CD34+ cells were enriched by positive selection using the EasySep™ CD34 enrichment kit, according to the manufacturer's instructions ([…] Technologies).
# Cultures were maintained in a humidified atmosphere with 5% CO2 at 37° C. or 39° C., as indicated in the Examples. Cells were diluted at 500 000 cells/mL with fresh medium every 3 to 4 days.
# Cellular counts and viability were determined by adding Solution 18 (Acridine Orange and DAPI solution, ChemomMetec) and using NucleoCounter™ NC-250 for detection (ChemomMetec).
# For cells expanded in conditions favoring self-renewal, surface markers were detected using the following antibodies: CD34-PE, CD45RA-FITC, and CD38-BV421. All antibodies were purchased from BD Biosciences, except for CD34-PE which was purchased from Immunotech. Labeling of aldehyde dehydrogenase (ALDH)-positive cells was performed using the ALDEFLUOR™ Kit ([…] Technologies), according to the manufacturer's instructions. 7AAD was used as a viability dye. All samples were analyzed on a FACS-Cy Flow ML system (Sysmex), and raw data were analyzed with FCS Express 5 Flow Research Edition software from at least 15 000 viable cell events acquired for each sample.
# Cellular counts and viability were determined as described in Example 6.5.
# [1] = 37° C. + PIC 35 nM, ACF + CC110
# [2] = 37° C. + PIC 35 nM, ACF + CC110 (Table 5)
# [3] = 37° C. + PIC 35 nM, ACF + HM (Table 5)
# [4] = 37° C. + PIC 35 nM, SFEM + CC110
# [5] = 37° C. + PIC 35 nM, SFEM II + CC110
# [6] = 37° C. + PIC 35 nM, SFEM II + HM
# [7] = 39° C. + PIC 35 nM, ACF + CC110
# [8] = 39° C. + PIC 35 nM, ACF + CC110 (Table 5)
# [9] = 39° C. + PIC 35 nM, ACF + HM (Table 5)
# [10] = 39° C. + PIC 35 nM, SFEM + CC110
# [11] = 39° C. + PIC 35 nM, SFEM II + CC110
# [12] = 39° C. + PIC 35 nM, SFEM II + HM
compound,measurement,setting,value
"Cl.Cn1nnc(-c2ccc3c(c2)[nH]c2nc(Cc4ccccc4)nc(N[C@H]4CC[C@H](N)CC4)c23)n1 [PIC, (1r,4r)-N1-(2-benzyl-7-(2-methyl-2H-tetrazol-5-yl)-9H-pyrimido[4,5-b]indol-4-yl)cyclohexane-1,4-diamine hydrochloride]",combined use of mild hyperthermia and PIC on expansion of CD34+/ALDH^Bright cells,"39° C. + PIC 35 nM, 21 days, ACF + HM, FIG. 29",synergistic expansion
same,Percentage of phenotype CD34+,[1],48.9%
same,Percentage of phenotype CD34+/CD38−,[1],30.3%
same,Percentage of phenotype CD34+/CD38−/CD45RA−,[1],10%
same,Percentage of phenotype CD34+/CD45RA−,[1],16.36%
same,Percentage of phenotype CD38−,[1],14.8%
same,Percentage of phenotype CD45RA−,[1],59.2%
same,Percentage of phenotype CD34+,[2],50.98%
same,Percentage of phenotype CD34+/CD45RA−,[2],11.83%
same,Percentage of phenotype CD45RA−,[2],76.09%
same,Percentage of phenotype CD34+,"37° C. + PIC 35 nM, ACF + HM",51.5%
same,Percentage of phenotype CD34+/CD38−,"37° C. + PIC 35 nM, ACF + HM",32.4%
same,Percentage of phenotype CD34+/CD38−/CD45RA−,"37° C. + PIC 35 nM, ACF + HM",14.7%
same,Percentage of phenotype CD34+/CD45RA−,"37° C. + PIC 35 nM, ACF + HM",22.4%
same,Percentage of phenotype CD38−,"37° C. + PIC 35 nM, ACF + HM",12.05%
same,Percentage of phenotype CD45RA−,"37° C. + PIC 35 nM, ACF + HM",53.4%
same,Percentage of phenotype CD34+,[3],44.62%
same,Percentage of phenotype CD34+/CD45RA−,[3],7.67%
same,Percentage of phenotype CD45RA−,[3],77.44%
same,Percentage of phenotype CD34+,[4],42.68%
same,Percentage of phenotype CD34+/CD45RA−,[4],6.96%
same,Percentage of phenotype CD45RA−,[4],78.72%
same,Percentage of phenotype CD34+,"37° C. + PIC 35 nM, SFEM + HM",37.4%
same,Percentage of phenotype CD34+/CD45RA−,"37° C. + PIC 35 nM, SFEM + HM",6.66%
same,Percentage of phenotype CD45RA−,"37° C. + PIC 35 nM, SFEM + HM",75.74%
same,Percentage of phenotype CD34+,[5],33.38%
same,Percentage of phenotype CD34+/CD45RA−,[5],6.09%
same,Percentage of phenotype CD45RA−,[5],77.73%
same,Percentage of phenotype CD34+,[6],30.82%
same,Percentage of phenotype CD34+/CD45RA−,[6],6.11%
same,Percentage of phenotype CD45RA−,[6],77.27%
same,Percentage of phenotype CD34+,[7],43.7%
same,Percentage of phenotype CD34+/CD38−,[7],24.2%
same,Percentage of phenotype CD34+/CD38−/CD45RA−,[7],14.1%
same,Percentage of phenotype CD34+/CD45RA−,[7],23.05%
same,Percentage of phenotype CD38−,[7],14.45%
same,Percentage of phenotype CD45RA−,[7],40.85%
same,Percentage of phenotype CD34+,[8],43.73%
same,Percentage of phenotype CD34+/CD45RA−,[8],18.73%
same,Percentage of phenotype CD45RA−,[8],59.72%
same,Percentage of phenotype CD34+,"39° C. + PIC 35 nM, ACF + HM",40.95%
same,Percentage of phenotype CD34+/CD38−,"39° C. + PIC 35 nM, ACF + HM",22.9%
same,Percentage of phenotype CD34+/CD38−/CD45RA−,"39° C. + PIC 35 nM, ACF + HM",15.7%
same,Percentage of phenotype CD34+/CD45RA−,"39° C. + PIC 35 nM, ACF + HM",24.8%
same,Percentage of phenotype CD38−,"39° C. + PIC 35 nM, ACF + HM",12%
same,Percentage of phenotype CD45RA−,"39° C. + PIC 35 nM, ACF + HM",35.2%
same,Percentage of phenotype CD34+,[9],44.82%
same,Percentage of phenotype CD34+/CD45RA−,[9],17.68%
same,Percentage of phenotype CD45RA−,[9],59.67%
same,Percentage of phenotype CD34+,[10],45.36%
same,Percentage of phenotype CD34+/CD45RA−,[10],12.23%
same,Percentage of phenotype CD45RA−,[10],70.13%
same,Percentage of phenotype CD34+,"39° C. + PIC 35 nM, SFEM + HM",41.95%
same,Percentage of phenotype CD34+/CD45RA−,"39° C. + PIC 35 nM, SFEM + HM",12.39%
same,Percentage of phenotype CD45RA−,"39° C. + PIC 35 nM, SFEM + HM",69.88%
same,Percentage of phenotype CD34+,[11],37.9%
same,Percentage of phenotype CD34+/CD45RA−,[11],15.03%
same,Percentage of phenotype CD45RA−,[11],63.9%
same,Percentage of phenotype CD34+,[12],37.56%
same,Percentage of phenotype CD34+/CD45RA−,[12],15.27%
same,Percentage of phenotype CD45RA−,[12],63.45%
